# Experimental data published in ChEMBL document CHEMBL5661943, “ASAP - In vitro antiviral effect” (2024).
# “And” between values parts separate entries of the source, which are not always exact repeats. Identical values can stand only once.
# Assays:
# dengue virus type 2 [1] = test: Functional assay to measure dose dependent changes in antiviral-drug inhibitory efficacy against Dengue virus type 2 New Guinea C in Vero E6 miRFP670 cells (cotreated with P-gp inhibitor, CP100356). Cells are treated with antiviral candidates that are serially diluted, following infection, cells are fixed. EC50 is reported via analysis of fluorescence intensity using high-content imager. The …; type: organism-based, Chlorocebus sabaeus, Vero C1008; details: for EC90: Baseline response 0 %, Maximum response 100 %, P-gp concentration 500 nM, P-gp inhibitor CP100356
# dengue virus type 2 [2] = test: Functional CPE-based assay to measure dose dependent changes in antiviral-drug inhibitory efficacy against Dengue virus type 2 New Guinea C in Huh7 cells. Cells are treated with antiviral candidates that are serially diluted. EC50 is reported via analysis of MTT/MTS assay as a readout of CPE. The assay has been performed by National Institute of Allergy and Infectious Diseases.; type: organism-based, Homo sapiens; details: Huh-7
# Zika virus [3] = test: (§1) Functional CPE-based assay to measure dose dependent changes in antiviral-drug inhibitory efficacy against Zika virus MR766 in Vero E6 miRFP670 cells. Cells are treated with antiviral candidates that are serially diluted. EC50 is reported via analysis of MTS assay as a readout of CPE. The assay has been performed by KU Leuven.; type: organism-based, Chlorocebus sabaeus, Vero C1008; details: Zika virus; for EC50: Vero C1008
# dengue virus type 2 [4] = test: (§2) Functional immunofluorescence assay to measure dose dependent changes in antiviral-drug inhibitory efficacy against Dengue virus type 2 Thailand/16681/84 in Vero E6/TMPRSS2 cells (cotreated with P-gp inhibitor, Elacridar). Cells are treated with antiviral candidates that are serially diluted, following infection, cells are fixed. EC50 is reported via analysis of immunofluorescence staining. The assay has been performed by Icahn School of Medicine at Mount Sinai.; type: organism-based, Chlorocebus sabaeus, VeroE6/TMPRSS2; details: for EC90: Baseline response 0 %, P-gp concentration 2 uM, P-gp inhibitor Elacidar
# Zika virus [5] = test: as §2, with “Zika” for “Dengue”, “PRVABC59” for “type 2 Thailand/16681/84”, “cells.” for “cells (cotreated with P-gp inhibitor, Elacridar).”; type: organism-based, Chlorocebus sabaeus; details: for EC50: VeroE6/TMPRSS2
# Zika virus [6] = test: EC50 is reported via analysis of immunofluorescence staining. The assay has been performed by Icahn School of Medicine at Mount Sinai.; type: functional, organism-based, Chlorocebus sabaeus, VeroE6/TMPRSS2
# dengue virus type 2 [7] = test: as §2, with “cells.” for “cells (cotreated with P-gp inhibitor, Elacridar).”; type: organism-based, Chlorocebus sabaeus
# Zika virus [8] = test: as §1, with “cells (cotreated with P-gp inhibitor, CP100356).” for “cells.”; type: organism-based, Chlorocebus sabaeus, Vero C1008; details: Zika virus, Vero C1008
structure (smiles),measurement,setting,value
CC1(C)Cc2sc(NC(=O)Cc3ccc(S(N)(=O)=O)cc3)c(C#N)c2CN1CC1CCCCC1,EC50,"dengue virus type 2 [1]; Dengue virus, Vero C1008",< 0.391 µM
same,EC90,"dengue virus type 2 [1]; Dengue virus, Vero C1008, Hill slope -4.912, Maximum measured 6.91 %, Minimum measured 0.005 %, R squared 0.81",< 0.391 µM
same,EC50,dengue virus type 2 [2],< 0.01 µM
same,EC50,Zika virus [3],> 50 µM
same,EC90,"Zika virus [3]; Vero C1008, Maximum measured -0.002 %, Minimum measured -8.758 %",> 50 µM
NCc1ccc(-c2ncc(OCC3CCNCC3)nc2-c2ccc(-c3ccoc3)cc2)cc1,EC50,"dengue virus type 2 [4]; Dengue virus, VeroE6/TMPRSS2",1 µM
same,EC90,"dengue virus type 2 [4]; Dengue virus, VeroE6/TMPRSS2, Hill slope -0.497, Maximum measured 90.326 %, Maximum response 100 %, Minimum measured 29.879 %, R squared 0.819",> 16.7 µM
same,EC50,Zika virus [5],> 50 µM
same,EC90,"Zika virus [5]; VeroE6/TMPRSS2, Maximum measured 394.841 %, Minimum measured 61.013 %",> 50 µM
same,EC50,dengue virus type 2 [2],> 5.5 µM
same,EC50,"Zika virus [6]; Zika virus, VeroE6/TMPRSS2",0.111 µM
same,EC90,"Zika virus [6]; Zika virus, VeroE6/TMPRSS2",16.5 µM
same,EC50,dengue virus type 2 [7]; VeroE6/TMPRSS2,16.1 µM
same,EC90,"dengue virus type 2 [7]; VeroE6/TMPRSS2, Baseline response -26.43 %, Hill slope -19.353, Maximum measured 64.866 %, Maximum response 59.51 %, Minimum measured 1.549 %, R squared 0.583",> 16.7 µM
O=C(NCC(F)(F)F)c1cc(Cl)c(F)cc1NS(=O)(=O)c1ccc(Oc2ccccc2Cl)cc1,EC50,"dengue virus type 2 [1]; Dengue virus, Vero C1008",3.79 µM
same,EC90,"dengue virus type 2 [1]; Dengue virus, Vero C1008, EC90 CI (lower) 2.885 uM, EC90 CI (upper) 3.374 uM, Hill slope -11.236, Maximum measured 107.639 %, Minimum measured 0.022 %, R squared 0.991",4.61 µM
same,EC50,dengue virus type 2 [2],> 1.9 µM
same,EC50,Zika virus [3],> 50 µM
same,EC90,"Zika virus [3]; Vero C1008, Maximum measured -0.734 %, Minimum measured -10.955 %",> 50 µM
O=C(Nc1ccc2c(c1)B(O)OC2)c1cccc(OCc2c(Cl)cccc2Cl)c1,EC50,Zika virus [5],1.09 µM
same,EC90,"Zika virus [5]; VeroE6/TMPRSS2, Baseline response 0 %, Hill slope -0.477, Maximum measured 91.001 %, Maximum response 100 %, Minimum measured 4.308 %, R squared 0.689",> 16.7 µM
same,EC50,dengue virus type 2 [2],> 1.9 µM
same,EC50,dengue virus type 2 [7]; VeroE6/TMPRSS2,0.155 µM
same,EC90,dengue virus type 2 [7]; VeroE6/TMPRSS2,0.735 µM
c1cc(C2CCN(Cc3c[nH]c4ccccc34)CC2)c2ccncc2c1,EC90,"dengue virus type 2 [4]; EC90 CI (lower) 0 uM, EC90 CI (upper) 0.011 uM, Hill slope -0.624, Maximum measured 68.2 %, Maximum response 100 %, Minimum measured 5.474 %, R squared 0.683",1.58 µM
same,EC90,"dengue virus type 2 [4]; EC90 CI (lower) 0 uM, EC90 CI (upper) […] uM, Hill slope -0.4, Maximum measured 23.467 %, Maximum response 30 %, Minimum measured 3.547 %, R squared 0.817",16.1 µM
same,EC50,dengue virus type 2 [4]; veroe6/tmprss2,0.047 µM and < 0.023 µM
same,EC50,"dengue virus type 2 [1]; Dengue virus, Vero C1008",2.69 µM
same,EC90,"dengue virus type 2 [1]; Dengue virus, Vero C1008, EC90 CI (lower) 0.253 uM, EC90 CI (upper) 1.159 uM, Hill slope -1.373, Maximum measured 83.881 %, Minimum measured 4.274 %, R squared 0.884",13.3 µM
same,EC50,Zika virus [5],7.01 µM
same,EC90,"Zika virus [5]; VeroE6/TMPRSS2, Baseline response 0 %, Hill slope -0.669, Maximum measured 111.623 %, Maximum response 100 %, Minimum measured 18.809 %, R squared 0.805",> 50 µM
same,EC50,dengue virus type 2 [2],27 µM
same,EC90,"Zika virus [6]; Baseline response 0 %, Hill slope -0.578, Maximum measured 88.327 %, Maximum response 100 %, Minimum measured 9.758 %, P-gp concentration 2 uM, R squared 0.671, P-gp inhibitor Elacidar",> 50 µM
same,EC90,"Zika virus [6]; Zika virus, VeroE6/TMPRSS2",25.3 µM
same,EC50,dengue virus type 2 [7]; VeroE6/TMPRSS2,0.336 µM
same,EC90,"dengue virus type 2 [7]; VeroE6/TMPRSS2, Baseline response 0 %, EC90 CI (lower) 0 uM, EC90 CI (upper) 0.803 uM, Hill slope -0.593, Maximum measured 141.896 %, Maximum response 100 %, Minimum measured 11.317 %, R squared 0.319",13.6 µM
COc1cc(N[C@@H](C(=O)N2CCc3ccc(OC(F)(F)F)cc32)c2ccc(Cl)cc2)cc(OCCCC(=O)O)c1,EC90,"dengue virus type 2 [4]; Hill slope 0.035, Maximum measured 8.614 %, Maximum response 100 %, Minimum measured 2.814 %, R squared 0.022",< 0.023 µM
same,EC90,"dengue virus type 2 [4]; Hill slope -0.067, Maximum measured 2.038 %, Maximum response 100 %, Minimum measured 0.482 %, R squared 0.032",< 0.005 µM
same,EC90,"dengue virus type 2 [4]; Hill slope -0.192, Maximum measured 3.988 %, Maximum response 100 %, Minimum measured 0.35 %, R squared 0.503",< 0.005 µM
same,EC50,dengue virus type 2 [4]; veroe6/tmprss2,< 0.005 µM
same,EC90,"dengue virus type 2 [1]; EC90 CI (lower) 26.978 uM, EC90 CI (upper) 1103.75 uM, Hill slope 1.671, Maximum measured 3.58 %, Minimum measured 0.058 %, R squared 0.662",< 0.391 µM
same,EC90,"dengue virus type 2 [1]; Hill slope 0.149, Maximum measured 0.277 %, Minimum measured 0.08 %, R squared 0.031",< 0.391 µM
same,EC90,"dengue virus type 2 [1]; Hill slope 0.294, Maximum measured 5.954 %, Minimum measured 0.022 %, R squared 0.035",< 0.391 µM
same,EC50,"dengue virus type 2 [1]; Dengue virus, Vero C1008",< 0.391 µM
same,EC90,"dengue virus type 2 [1]; Dengue virus, Vero C1008, Hill slope -0.103, Maximum measured 0.223 %, Minimum measured 0.035 %, R squared 0.026",< 0.391 µM
same,EC50,dengue virus type 2 [2],< 0.01 µM
same,EC50,Zika virus [8],> 6.25 µM
same,EC90,"Zika virus [8]; Baseline response 0 %, Hill slope 1.255, Maximum measured 36.243 %, Maximum response 100 %, Minimum measured 3.426 %, P-gp concentration 500 nM, R squared 0.925, P-gp inhibitor CP100356",> 6.25 µM
same,EC50,Zika virus [3],> 6.25 µM
same,EC90,"Zika virus [3]; Vero C1008, Baseline response 0 %, Hill slope 1.919, Maximum measured 39.533 %, Maximum response 100 %, Minimum measured 0.481 %, R squared 0.987",> 6.25 µM
same,EC90,"Zika virus [3]; Vero C1008, Baseline response 0 %, Hill slope 2.194, Maximum measured 37.889 %, Maximum response 100 %, Minimum measured -0.884 %, R squared 0.976",> 6.25 µM
same,EC90,"Zika virus [3]; Vero C1008, Baseline response 0 %, Hill slope 2.262, Maximum measured 0.1 %, Maximum response 100 %, Minimum measured -2.404 %, R squared 0.714",> 6.25 µM
same,EC50,"Zika virus [6]; Zika virus, VeroE6/TMPRSS2",> 10 µM
same,EC90,"Zika virus [6]; Zika virus, VeroE6/TMPRSS2, Maximum measured 96.7 %, Minimum measured 47.971 %, P-gp concentration 2 uM, P-gp inhibitor Elacidar",> 10 µM
same,EC90,"Zika virus [6]; Zika virus, VeroE6/TMPRSS2, Maximum measured 158.114 %, Minimum measured 73.503 %, P-gp concentration 2 uM, P-gp inhibitor Elacidar",> 10 µM
same,EC90,"Zika virus [6]; Zika virus, VeroE6/TMPRSS2, Baseline response 0 %, Hill slope -19.172, Maximum measured 90.933 %, Maximum response 60 %, Minimum measured 7.507 %, P-gp concentration 2 uM, R squared 0.342, P-gp inhibitor Elacidar",> 16.7 µM
same,EC50,Zika virus [6]; veroe6/tmprss2,15.1 µM
O=C(O)c1cc(Oc2ccc(F)cc2)c(F)cc1NS(=O)(=O)c1ccc(Oc2ccccc2Cl)cc1,EC50,"dengue virus type 2 [4]; Dengue virus, VeroE6/TMPRSS2",> 16.7 µM
same,EC90,"dengue virus type 2 [4]; Dengue virus, VeroE6/TMPRSS2, Hill slope -0.235, Maximum measured 89.319 %, Maximum response 100 %, Minimum measured 56.356 %, R squared 0.164",> 16.7 µM
same,EC50,dengue virus type 2 [2],> 20 µM
same,EC90,"Zika virus [6]; Baseline response 0 %, Hill slope -0.477, Maximum measured 92.293 %, Maximum response 50 %, Minimum measured 32.859 %, P-gp concentration 2 uM, R squared 0.014, P-gp inhibitor Elacidar",> 16.7 µM
same,EC90,"Zika virus [6]; Zika virus, VeroE6/TMPRSS2, Baseline response 0 %, Hill slope -0.324, Maximum measured 79.955 %, Maximum response 100 %, Minimum measured 28.499 %, P-gp concentration 2 uM, R squared 0.691, P-gp inhibitor Elacidar",> 16.7 µM
CCCC[C@H](NC(C)=O)C(=O)N[C@H](C(=O)NCc1ccc(C(N)=O)cc1)c1ccc(OCc2ccccc2)cc1,EC90,"dengue virus type 2 [4]; Hill slope -0.583, Maximum measured 72.286 %, Maximum response 50 %, Minimum measured 22.28 %, R squared 0.087",> 50 µM
same,EC90,"dengue virus type 2 [4]; Dengue virus, VeroE6/TMPRSS2, Hill slope -0.364, Maximum measured 95.574 %, Maximum response 100 %, Minimum measured 8.045 %, R squared 0.69",> 50 µM
same,EC50,dengue virus type 2 [2],5.3 µM
same,EC50,"Zika virus [6]; Zika virus, VeroE6/TMPRSS2",> 50 µM
same,EC90,"Zika virus [6]; Zika virus, VeroE6/TMPRSS2, Maximum measured 173.346 %, Minimum measured 74.645 %, P-gp concentration 2 uM, P-gp inhibitor Elacidar",> 50 µM
same,EC90,"Zika virus [6]; Zika virus, VeroE6/TMPRSS2, Baseline response 0 %, Hill slope 0.304, Maximum measured 106.185 %, Maximum response 100 %, Minimum measured 70.235 %, P-gp concentration 2 uM, R squared 0.184, P-gp inhibitor Elacidar",> 50 µM
